Measurements published in patent publication US20200031805A1, “ARYL HYDROCARBON RECEPTOR (AHR) MODULATOR COMPOUNDS” (PHENEX PHARMACEUTICALS AG, priority 2017, published 2020).

Each compound was assayed against T1, aryl hydrocarbon receptor (AhR) (Homo sapiens, UniProt P35869) (assay: AhR direct luciferase reporter assay in HepG2 cells (HepG2 CYP1A1-LUC)). Settings: luciferase activity after 18 hours, no exogenous AhR agonist or 10 nM VAF347, read-out: AhR potency (AhR antagonistic potency, IC50).
T1 construct: The HepG2 CYP1A1-Luc cells do express basal luciferase activity that can be increased via potent AhR agonists or decreased via potent AhR antagonists; endogenous in cells; host or cells: HepG2 (DSMZ # ACC 180) stably carrying a CYP1A1 promoter-firefly luciferase reporter
T1 sequence (P35869 11-848): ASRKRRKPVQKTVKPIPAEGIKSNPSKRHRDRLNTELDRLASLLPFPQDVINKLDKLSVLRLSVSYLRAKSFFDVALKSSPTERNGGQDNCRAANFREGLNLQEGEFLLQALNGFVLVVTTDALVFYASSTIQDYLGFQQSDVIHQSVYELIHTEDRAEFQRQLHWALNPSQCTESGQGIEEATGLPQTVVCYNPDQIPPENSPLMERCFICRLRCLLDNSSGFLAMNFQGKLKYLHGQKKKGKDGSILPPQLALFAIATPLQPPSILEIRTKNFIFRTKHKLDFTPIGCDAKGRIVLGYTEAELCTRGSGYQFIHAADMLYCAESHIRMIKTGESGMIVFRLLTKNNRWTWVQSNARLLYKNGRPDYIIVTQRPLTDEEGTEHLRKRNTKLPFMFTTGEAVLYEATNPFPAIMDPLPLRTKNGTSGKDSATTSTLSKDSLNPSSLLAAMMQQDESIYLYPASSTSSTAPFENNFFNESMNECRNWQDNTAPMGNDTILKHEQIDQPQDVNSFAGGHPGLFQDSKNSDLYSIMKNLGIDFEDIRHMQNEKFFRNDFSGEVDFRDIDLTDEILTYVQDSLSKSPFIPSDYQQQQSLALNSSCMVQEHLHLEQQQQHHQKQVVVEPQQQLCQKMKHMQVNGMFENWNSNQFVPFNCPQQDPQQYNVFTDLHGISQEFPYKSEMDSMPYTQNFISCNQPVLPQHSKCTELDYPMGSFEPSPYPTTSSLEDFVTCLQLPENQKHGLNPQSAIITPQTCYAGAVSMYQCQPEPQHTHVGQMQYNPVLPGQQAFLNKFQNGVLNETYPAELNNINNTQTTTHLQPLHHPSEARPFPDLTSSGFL
Assay type: cell-based
Procedure: AhR Direct Luciferase Reporter Assay in HepG2 Cells.
A stable cell line (HepG2 CYP1A1-LUC) was used in which part of the promoter region of the human CYP1A1 gene is stably integrated into the genome of human HepG2 hepatocytes (DSZM # ACC 180) in front of a Photinus pyralis Firefly Luciferase gene. […] The resulting vector was linearized with NotI, transfected into HepG2 cells (DSMZ # ACC 180) and stably transfected clones selected with 250 μg/ml Hygromycin B. After repetitive rounds of subcloning and testing for robustly regulated luciferase activity after AhR agonist stimulation, a stable clonal HepG2 CYP1A1-Luc cell line was selected.
The HepG2 CYP1A1-Luc cells do express basal luciferase activity that can be increased via potent AhR agonists or decreased via potent AhR antagonists, added to the growth medium of the cells.
Cells are further cultivated for 18 hours and luciferase activities are determined from extracts of cells in buffers containing D-Luciferine and ATP using a LUMIstar Optima microplate Luminometer from BMG Labtech.
Compound `Cn1nccc1C(=O)Nc1ccc2cc(-c3ccccc3F)[nH]c2c1` [1/1, N-(2-(2-FLUOROPHENYL)-1H-INDOL-6-YL)-1-METHYL-1H-PYRAZOLE-5-CARBOXAMIDE] has an IC50 of 100 to 1000 nM.
`Cn1nccc1C(=O)Nc1ccc2cc(-c3cccc(Cl)c3)[nH]c2c1` [1/2, N-(2-(3-CHLOROPHENYL)-1H-INDOL-6-YL)-1-METHYL-1H-PYRAZOLE-5-CARBOXAMIDE] gave an IC50 of 100 to 1000 nM.
`Cn1nccc1C(=O)Nc1ccc2cc(-c3ccccc3C(F)(F)F)[nH]c2c1` [2/1, 1-METHYL-N-(2-(2-(TRIFLUOROMETHYL)PHENYL)-1H-INDOL-6-YL)-1H-PYRAZOLE-5-CARBOXAMIDE] gave an IC50 of less than 100 nM.
Work on `Cn1nccc1C(=O)Nc1ccc2cc(-c3ccc(Cl)cc3Cl)[nH]c2c1` [2/2, N-(2-(2,4-DICHLOROPHENYL)-1H-INDOL-6-YL)-1-METHYL-1H-PYRAZOLE-5-CARBOXAMIDE] yielded an IC50 of 100 to 1000 nM.
For `Cc1ccccc1-c1cc2ccc(NC(=O)c3ccnn3C(C)C)cc2[nH]1` [2/3, 1-ISOPROPYL-N-(2-(O-TOLYL)-1H-INDOL-6-YL)-1H-PYRAZOLE-5-CARBOXAMIDE], the IC50 was greater than 1000 nM.
`Cn1ncnc1C(=O)Nc1ccc2cc(-c3ccccc3C(F)(F)F)[nH]c2c1` [2/4, 1-METHYL-N-(2-(2-(TRIFLUOROMETHYL)PHENYL)-1H-INDOL-6-YL)-1H-1,2,4-TRIAZOLE-5-CARBOXAMIDE] gave an IC50 of less than 100 nM.
`O=C(Nc1ccc2cc(-c3ccccc3C(F)(F)F)[nH]c2c1)c1ccccn1` [2/5, N-(2-(2-(TRIFLUOROMETHYL)PHENYL)-1H-INDOL-6-YL)PICOLINAMIDE] showed an IC50 of less than 100 nM.
For `Cc1ccccc1-c1cc2ccc(NC(=O)c3ncnn3C)cc2[nH]1` [3/1, 1-METHYL-N-(2-(O-TOLYL)-1H-INDOL-6-YL)-1H-1,2,4-TRIAZOLE-5-CARBOXAMIDE], the IC50 was less than 100 nM.
`Cc1ccccc1-c1cc2ccc(NC(=O)c3cccn3C)cc2[nH]1` [3/2, 1-METHYL-N-(2-(O-TOLYL)-1H-INDOL-6-YL)-1H-PYRROLE-2-CARBOXAMIDE] showed an IC50 of less than 100 nM.
In the case of `Cc1ccccc1-c1cc2ccc(NC(=O)c3ccco3)cc2[nH]1` [3/3, N-(2-(O-TOLYL)-1H-INDOL-6-YL)FURAN-2-CARBOXAMIDE], the IC50 is reported as less than 100 nM.
In the case of `Cc1ccccc1-c1cc2ccc(NC(=O)c3ccc(O)c(C(N)=O)c3)cc2[nH]1` [3/4, 4-HYDROXY-N^1-(2-(O-TOLYL)-1H-INDOL-6-YL)ISOPHTHALAMIDE], the IC50 is reported as greater than 1000 nM.
`Cc1ccccc1-c1cc2ccc(NC(=O)c3ccccn3)cc2[nH]1` [3/5, N-(2-(O-TOLYL)-1H-INDOL-6-YL)PICOLINAMIDE] was tested, and the IC50 was less than 100 nM.
Compound `Cc1cc2cc(-c3ccccc3C(F)(F)F)[nH]c2cc1NC(=O)c1ccccn1` [4/1, N-(5-METHYL-2-(2-(TRIFLUOROMETHYL)PHENYL)-1H-INDOL-6-YL)PICOLINAMIDE] has an IC50 of less than 100 nM.
Work on `Cn1nccc1C(=O)Nc1ccc2cc(-c3ccccc3C(F)F)[nH]c2c1` [6/1] yielded an IC50 of less than 100 nM.
Compound `Cn1ncnc1C(=O)Nc1ccc2cc(-c3cc(F)ccc3C(F)F)[nH]c2c1` [6/3] has an IC50 of less than 100 nM.
`Cn1nccc1C(=O)Nc1ccc2cc(-c3cc(F)ccc3C(F)F)[nH]c2c1` [6/4] was tested, and the IC50 was less than 100 nM.
For `Cn1ncnc1C(=O)Nc1ccc2cc(-c3cc(Cl)ccc3C(F)(F)F)[nH]c2c1` [6/5], the IC50 was less than 100 nM.
Compound `Cn1nccc1C(=O)Nc1ccc2cc(-c3cc(Cl)ccc3C(F)(F)F)[nH]c2c1` [6/6] has an IC50 of less than 100 nM.
For `Cn1nccc1C(=O)Nc1ccc2cc(-c3ccccc3Cl)[nH]c2c1` [Example 2, N-(2-(2-Chlorophenyl)-1H-indol-6-yl)-1-methyl-1H-pyrazole-5-carboxamide], the IC50 was 100 to 1000 nM.
`Cc1ccccc1-c1cc2ccc(NC(=O)c3ccn[nH]3)cc2[nH]1` [Example 3, N-(2-(O-TOLYL)-1H-INDOL-6-YL)-1H-PYRAZOLE-5-CARBOXAMIDE] showed an IC50 of 100 to 1000 nM.
With `Cc1cc2cc(-c3ccccc3C(F)(F)F)[nH]c2cc1NC(=O)c1ncnn1C` [Example 4, 1-METHYL-N-(5-METHYL-2-(2-(TRIFLUOROMETHYL)PHENYL)-1H-INDOL-6-YL)-1H-1,2,4-TRIAZOLE-5-CARBOXAMIDE] the IC50 was less than 100 nM.
Compound `Cn1ncnc1C(=O)Nc1ccc2cc(-c3ccccc3C(F)F)[nH]c2c1` [Example 6, N-(2-(2-(Difluoromethyl)phenyl)-1H-indol-6-yl)-1-methyl-1H-1,2,4-triazole-5-carboxamide] has an IC50 of less than 100 nM.
